Experiments:
Assay type in all cases: in vivo
[1] = tested on: Cowpea Aphid (Aphis craccivora); experiment: Cowpea aphid spray test on potted cowpea plants; conditions: population reduction assessed after 24, 72 and 120 hours, read-out: mortality in comparison with untreated controls
Experimental: If not otherwise specified the test solutions were prepared as follows:
The active compound was dissolved at the desired concentration in a mixture of 1:1 (vol:vol) distilled water: acetone. The test solution was prepared at the day of use and in general at concentrations of ppm (wt/vol).
Potted cowpea plants colonized with 100-150 aphids of various stages were sprayed after the pest population had been recorded. Population reduction was assessed after 24, 72, and 120 hours.

[2] = tested on: Vetch Aphid (Megoura viciae); experiment: Vetch aphid bean leaf disk microtiter test; conditions: foliar, 144 h, leaf disks sprayed with 2.5 μl, 6 days, read-out: mortality in comparison with untreated controls
Experimental: The active compounds were formulated in 3:1 (vol:vol) water: DMSO with different concentrations of formulated compounds.
Bean leaf disks were placed into microtiterplates filled with 0.8% agar-agar and 2.5 ppm OPUS™. The leaf disks were sprayed with 2.5 μl of the test solution and 5 to 8 adult aphids were placed into the microtiter plates which were then closed and kept at 23±1° C. and 50±5% relative humidity under fluorescent light for 6 days. Mortality was assessed on the basis of vital, reproduced aphids. Aphid mortality and fecundity was then visually assessed.

[3] = tested on: Green Peach Aphid (Myzus persicae); experiment: Green peach aphid spray test on infested bell pepper plants; conditions: 120 h, after 5 days, read-out: mortality in comparison with untreated controls
Experimental: (§1) The active compounds were formulated in cyclohexanone as a 10,000 ppm solution supplied in 1.3 ml ABgene® tubes. These tubes were inserted into an automated electrostatic sprayer equipped with an atomizing nozzle and they served as stock solutions for which lower dilutions were made in 1:1 (vol:vol) water: acetone. A nonionic surfactant (Kinetic®) was included in the solution at a volume of 0.01% (v/v).
Bell pepper plants at the first true-leaf stage were infested prior to treatment by placing heavily infested leaves from the main colony on top of the treatment plants. Aphids were allowed to transfer overnight to accomplish an infestation of 30-50 aphids per plant and the host leaves were removed. The infested plants were then sprayed by an automated electrostatic plant sprayer equipped with an atomizing spray nozzle. The plants were dried in the sprayer fume hood, removed, and then maintained in a growth room under fluorescent lighting in a 24 hour photoperiod at 25° C. and 20-40% relative humidity. Aphid mortality on the treated plants, relative to mortality on untreated control plants, was determined after 5 days.

[4] = tested on: Silverleaf Whitefly (Bemisia argentifolii, Adult); experiment: Silverleaf whitefly test on sprayed cotton plants; conditions: 72 h, 3 days after treatment, read-out: mortality in comparison with untreated controls
Experimental: as §1
Cotton plants at the cotyledon stage (one plant per pot) were sprayed by an automated electrostatic plant sprayer equipped with an atomizing spray nozzle. The plants were dried in the sprayer fume hood and then removed from the sprayer. Each pot was placed into a plastic cup and 10 to 12 whitefly adults (approximately 3-5 days […]) were introduced. The insects were collected using an aspirator and 0.6 cm, nontoxic Tygon® tubing (R-3603) connected to a barrier pipette tip. The tip, containing the collected insects, was then gently inserted into the soil containing the treated plant, allowing insects to crawl out of the tip to reach the foliage for feeding. Cups were covered with a reusable screened lid (150-micron mesh polyester screen PeCap from Tetko, Inc.). Test plants were maintained in a growth room at 25° C. and 20-40% relative humidity for 3 days, avoiding direct exposure to fluorescent light (24 hour photoperiod) to prevent trapping of heat inside the cup. Mortality was assessed 3 days after treatment, compared to untreated control plants.

[5] = tested on: Cotton Aphid (Aphis gossypii, Mixed Life Stages); experiment: Cotton aphid spray test on infested cotton plants; conditions: 120 h, after 5 days, read-out: mortality in comparison with untreated controls
Experimental: as §1
Cotton plants at the cotyledon stage were infested with aphids prior to treatment by placing a heavily infested leaf from the main aphid colony on top of each cotyledon. Aphids were allowed to transfer overnight to accomplish an infestation of 80-100 aphids per plant and the host leaf was removed. The infested plants were then sprayed by an automated electrostatic plant sprayer equipped with an atomizing spray nozzle. The plants were dried in the sprayer fume hood, removed from the sprayer, and then maintained in a growth room under fluorescent lighting in a 24-hr photoperiod at 25° C. and 20-40% relative humidity. Aphid mortality on the treated plants, relative to mortality on untreated control plants, was determined after 5 days.

[6] = tested on: Orchid thrips (Dichromothrips corbetti); experiment: Orchid thrips petal dip test; conditions: petals dipped, after 72 hours, read-out: mortality in comparison with untreated controls
Experimental: The active compounds were formulated as a 1:1 (vol:vol) water: acetone solution. Surfactant (Alkamuls EL 620) was added at the rate of 0.1% (vol/vol). Vanda orchids petals were cleaned, washed and air dried prior to spraying. Petals were dipped into the test solution for 3 seconds, air dried, placed inside a resealable plastic and inoculated with 20 adults. The treated petals were kept inside the […] room at 28-29° C. and relative humidity of 50-60%. Percent mortality was recorded after 72 hours.

CCOCCSc1ccc2nn(-c3cccnc3)cc2c1 [I-B5, 5-(2-ethoxyethylsulfanyl)-2-(3-pyridyl)indazole]
≥ 75%: mortality at 500 ppm [1] | mortality at 800 ppm [2]

CCOCCSc1cccc2nn(-c3cccnc3)cc12 [I-C1, 4-(2-ethoxyethylsulfanyl)-2-(3-pyridyl)indazole]
≥ 75%: mortality at 500 ppm [1] | mortality at 300 ppm [3] | mortality at 300 ppm [4] | mortality at 800 ppm [2] | mortality at 300 ppm [5]

COc1ccc2nc(-c3cccnc3)oc2c1 [I-1, 6-methoxy-2-(3-pyridyl)-1,3-benzoxazole]
≥ 75%: mortality at 500 ppm [1]

COc1ccc2nc(-c3cccnc3)sc2n1 [I-H4, 5-methoxy-2-(3-pyridyl)thiazolo[5,4-b]pyridine]
≥ 75%: mortality at 500 ppm [1]

COc1ccc2nc(-c3cccnc3)oc2n1 [I-K1, 5-methoxy-2-(3-pyridyl)oxazolo[5,4-b]pyridine]
≥ 75%: mortality at 500 ppm [1] | mortality at 300 ppm [3] | mortality at 300 ppm [4] | mortality at 800 ppm [2] | mortality at 300 ppm [5]

CC(C)(COc1ccc2nn(-c3cccnc3)cc2n1)S(C)(=O)=O [I-D59, 5-(2-methyl-2-methylsulfonyl-propoxy)-2-(3-pyridyl)pyrazolo[4,3-b]pyridine]
≥ 75%: mortality at 500 ppm [1] | mortality at 300 ppm [3] | mortality at 300 ppm [4] | mortality at 500 ppm [6] | mortality at 800 ppm [2] | mortality at 300 ppm [5]

CCOCC[S+]([O-])c1ccc2nn(-c3cccnc3)cc2n1 (centres unmarked) [I-D39, 5-(2-ethoxyethylsulfinyl)-2-(3-pyridyl)pyrazolo[4,3-b]pyridine]
≥ 75%: mortality at 300 ppm [3] | mortality at 300 ppm [4] | mortality at 800 ppm [2] | mortality at 300 ppm [5]

COc1ccc2nn(-c3cccnc3)cc2n1 [I-D57, 5-methoxy-2-(3-pyridyl)pyrazolo[4,3-b]pyridine]
≥ 75%: mortality at 500 ppm [1] | mortality at 300 ppm [3] | mortality at 300 ppm [4] | mortality at 800 ppm [2] | mortality at 300 ppm [5]

COc1ccc2nn(-c3cccnc3)cc2c1 [I-B4, 5-methoxy-2-(3-pyridyl)indazole]
≥ 75%: mortality at 300 ppm [4]

CCOCCSc1ccc2nn(-c3cccnc3)cc2n1 [I-D16, 5-(2-ethoxyethylsulfanyl)-2-(3-pyridyl)pyrazolo[4,3-b]pyridine]
≥ 75%: mortality at 300 ppm [3] | mortality at 800 ppm [2] | mortality at 300 ppm [5]

FC(F)(F)COc1ccc2nc(-c3cccnc3)cn2n1 [I-E14, 2-(3-pyridyl)-6-(2,2,2-trifluoroethoxy)imidazo[1,2-b]pyridazine]
≥ 75%: mortality at 300 ppm [3] | mortality at 300 ppm [4] | mortality at 800 ppm [2] | mortality at 300 ppm [5]

CCOCCS(=O)(=O)c1ccc2nn(-c3cccnc3)cc2n1 [I-D46, 5-(2-ethoxyethylsulfonyl)-2-(3-pyridyl)pyrazolo[4,3-b]pyridine]
≥ 75%: mortality at 300 ppm [3] | mortality at 300 ppm [4] | mortality at 800 ppm [2] | mortality at 300 ppm [5]
